{"source": "PubChem BioAssay (NCI)", "assay_in_all_cases": "growth of human tumour cells (NCI), 48 h", "key": {"SK-MEL-2 melanoma": {"tested_on": "SK-MEL-2 melanoma"}, "NCI/ADR-RES ovarian": {"tested_on": "NCI/ADR-RES ovarian"}, "DU-145 prostate": {"tested_on": "DU-145 prostate"}, "MOLT-4 leukemia": {"tested_on": "MOLT-4 leukemia"}, "SR leukemia": {"tested_on": "SR leukemia"}, "HOP-62 NSCLC": {"tested_on": "HOP-62 NSCLC"}, "CCRF-CEM leukemia": {"tested_on": "CCRF-CEM leukemia"}, "SK-MEL-28 melanoma": {"tested_on": "SK-MEL-28 melanoma"}, "MDA-MB-435": {"tested_on": "MDA-MB-435"}, "PC-3 prostate": {"tested_on": "PC-3 prostate"}, "OVCAR-5 ovarian": {"tested_on": "OVCAR-5 ovarian"}, "SW-620 colon": {"tested_on": "SW-620 colon"}, "BT-549 breast": {"tested_on": "BT-549 breast"}, "HCT-15 colon": {"tested_on": "HCT-15 colon"}, "M14 melanoma": {"tested_on": "M14 melanoma"}, "786-0 renal": {"tested_on": "786-0 renal"}, "HT29 colon": {"tested_on": "HT29 colon"}, "UACC-62 melanoma": {"tested_on": "UACC-62 melanoma"}, "NCI-H23 lung": {"tested_on": "NCI-H23 lung"}, "TK-10 renal": {"tested_on": "TK-10 renal"}, "SF-539 CNS": {"tested_on": "SF-539 CNS"}, "MCF7 breast": {"tested_on": "MCF7 breast"}, "RXF 393 renal": {"tested_on": "RXF 393 renal"}, "HCT-116 colon": {"tested_on": "HCT-116 colon"}, "A498 renal": {"tested_on": "A498 renal"}, "OVCAR-4 ovarian": {"tested_on": "OVCAR-4 ovarian"}, "NCI-H226 lung": {"tested_on": "NCI-H226 lung"}, "NCI-H460 lung": {"tested_on": "NCI-H460 lung"}, "LOX IMVI melanoma": {"tested_on": "LOX IMVI melanoma"}}, "note": "Values joined by “and” are separate entries in the source; they are usually repeats but may differ in a detail not shown here. Identical values can stand only once.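 Results reflect a 48-hour exposure of cells in 96-well plates to compound at five concentrations. Abbreviation: GI50, concentration required for 50% inhibition of growth. TGI: concentration producing complete growth inhibition.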"}
{"smiles": "COC(=O)c1ccc2c(C(=Nc3ccc(N(C)C(=O)CN4CCN(C)CC4)cc3)c3ccccc3)c(O)[nH]c2c1", "values": [{"measurement": "TGI", "setting": "SK-MEL-2 melanoma", "value": "19.1 µM and 8.86 µM"}, {"measurement": "GI50", "setting": "NCI/ADR-RES ovarian", "value": "14.4 µM and > 32.7 µM"}, {"measurement": "TGI", "setting": "NCI/ADR-RES ovarian", "value": "> 100", "unit": "µM"}, {"measurement": "GI50", "setting": "DU-145 prostate", "value": "3.22 µM and 6.14 µM"}, {"measurement": "TGI", "setting": "DU-145 prostate", "value": "14.9 µM and > 100 µM"}, {"measurement": "GI50", "setting": "MOLT-4 leukemia", "value": "2.21 µM and 2.74 µM"}, {"measurement": "TGI", "setting": "MOLT-4 leukemia", "value": "22.1 µM and > 100 µM"}, {"measurement": "GI50", "setting": "SR leukemia", "value": 2.5, "unit": "µM"}, {"measurement": "TGI", "setting": "SR leukemia", "value": "> 44.7", "unit": "µM"}, {"measurement": "GI50", "setting": "HOP-62 NSCLC", "value": "1.36 µM and 2.32 µM"}, {"measurement": "TGI", "setting": "HOP-62 NSCLC", "value": "12.2 µM and > 100 µM"}, {"measurement": "GI50", "setting": "CCRF-CEM leukemia", "value": "2.56 µM and 2.81 µM"}, {"measurement": "TGI", "setting": "CCRF-CEM leukemia", "value": "16.7 µM and > 100 µM"}, {"measurement": "GI50", "setting": "SK-MEL-28 melanoma", "value": "1.77 µM and 1.96 µM"}, {"measurement": "TGI", "setting": "SK-MEL-28 melanoma", "value": "3.35 µM and 3.5 µM"}, {"measurement": "GI50", "setting": "MDA-MB-435", "value": "1.63 µM and 1.6 µM"}, {"measurement": "TGI", "setting": "MDA-MB-435", "value": "3.09 µM and 3.05 µM"}, {"measurement": "GI50", "setting": "PC-3 prostate", "value": "5.2 µM and 25.6 µM"}, {"measurement": "TGI", "setting": "PC-3 prostate", "value": "53.2 µM and > 100 µM"}, {"measurement": "GI50", "setting": "OVCAR-5 ovarian", "value": "1.73 µM and 6.75 µM"}, {"measurement": "GI50", "setting": "SW-620 colon", "value": 1.87, "unit": "µM"}, {"measurement": "TGI", "setting": "SW-620 colon", "value": 4.14, "unit": "µM"}, {"measurement": "GI50", "setting": "BT-549 breast", "value": "6.6 µM and 11.7 µM"}, {"measurement": "TGI", "setting": "BT-549 breast", "value": "22 µM and 29.7 µM"}, {"measurement": "GI50", "setting": "HCT-15 colon", "value": "2.22 µM and 5.45 µM"}, {"measurement": "TGI", "setting": "HCT-15 colon", "value": "> 100", "unit": "µM"}, {"measurement": "GI50", "setting": "M14 melanoma", "value": "1.75 µM and 1.98 µM"}, {"measurement": "TGI", "setting": "M14 melanoma", "value": "3.56 µM and 3.98 µM"}, {"measurement": "GI50", "setting": "786-0 renal", "value": "1.93 µM and 1.47 µM"}, {"measurement": "TGI", "setting": "786-0 renal", "value": "6.6 µM and 4.64 µM"}, {"measurement": "GI50", "setting": "HT29 colon", "value": 1.22, "unit": "µM"}, {"measurement": "TGI", "setting": "HT29 colon", "value": 3.9, "unit": "µM"}, {"measurement": "GI50", "setting": "UACC-62 melanoma", "value": "2.18 µM and 3.09 µM"}, {"measurement": "TGI", "setting": "UACC-62 melanoma", "value": "5.09 µM and 21.4 µM"}, {"measurement": "GI50", "setting": "NCI-H23 lung", "value": "5.23 µM and 6.98 µM"}, {"measurement": "TGI", "setting": "NCI-H23 lung", "value": "28.4 µM and > 100 µM"}, {"measurement": "GI50", "setting": "TK-10 renal", "value": "4.63 µM and 19.2 µM"}, {"measurement": "TGI", "setting": "TK-10 renal", "value": "23.5 µM and > 100 µM"}, {"measurement": "GI50", "setting": "SF-539 CNS", "value": "0.597 µM and 1.4 µM"}, {"measurement": "TGI", "setting": "SF-539 CNS", "value": "2.26 µM and 5.9 µM"}, {"measurement": "GI50", "setting": "MCF7 breast", "value": "1.55 µM and 4.48 µM"}, {"measurement": "TGI", "setting": "MCF7 breast", "value": "13.6 µM and > 100 µM"}, {"measurement": "GI50", "setting": "RXF 393 renal", "value": "0.683 µM and 0.572 µM"}, {"measurement": "TGI", "setting": "RXF 393 renal", "value": "2.47 µM and 2.9 µM"}, {"measurement": "GI50", "setting": "HCT-116 colon", "value": "1.58 µM and 1.48 µM"}, {"measurement": "TGI", "setting": "HCT-116 colon", "value": "3.06 µM and 2.97 µM"}, {"measurement": "GI50", "setting": "A498 renal", "value": "0.613 µM and 0.604 µM"}, {"measurement": "TGI", "setting": "A498 renal", "value": "5.52 µM and 10.1 µM"}, {"measurement": "GI50", "setting": "OVCAR-4 ovarian", "value": "5.17 µM and 13.1 µM"}, {"measurement": "TGI", "setting": "OVCAR-4 ovarian", "value": "59.6 µM and > 70.8 µM"}, {"measurement": "GI50", "setting": "NCI-H226 lung", "value": "2.35 µM and 1.82 µM"}, {"measurement": "TGI", "setting": "NCI-H226 lung", "value": "24.5 µM and 59.9 µM"}, {"measurement": "GI50", "setting": "NCI-H460 lung", "value": "2.02 µM and 2.24 µM"}, {"measurement": "TGI", "setting": "NCI-H460 lung", "value": "4 µM and 4.96 µM"}, {"measurement": "GI50", "setting": "LOX IMVI melanoma", "value": "1.24 µM and 1.28 µM"}, {"measurement": "TGI", "setting": "LOX IMVI melanoma", "value": "3.09 µM and 2.75 µM"}]}
